From article PMC3694296, “11β-Hydroxysteroid dehydrogenase type 1 contributes to the balance between 7-keto- and 7-hydroxy-oxysterols in vivo” (Biochemical Pharmacology, 2013)

What was measured:
[1] = target: T1, 11β-hydroxysteroid dehydrogenase type 1 (murine 11βHSD1, m11βHSD1) (Mus musculus, UniProt P50172); assay: competitive inhibition of corticosterone oxidation by recombinant enzyme (Dixon plot, HPLC); also itself oxidised as a poor substrate (Km […]); assay type: biochemical
T1 construct: gene Hsd11b1; truncated form of recombinant m11βHSD1 protein (N23Δ)

[2] = target: T1, 11β-hydroxysteroid dehydrogenase type 1 (murine 11βHSD1, m11βHSD1); assay: competitive inhibition of 11-DHC reduction by recombinant enzyme (Dixon plot, HPLC); also itself reduced as a poor substrate (Km […]); assay type: biochemical

T1 sequence (P50172 24-292): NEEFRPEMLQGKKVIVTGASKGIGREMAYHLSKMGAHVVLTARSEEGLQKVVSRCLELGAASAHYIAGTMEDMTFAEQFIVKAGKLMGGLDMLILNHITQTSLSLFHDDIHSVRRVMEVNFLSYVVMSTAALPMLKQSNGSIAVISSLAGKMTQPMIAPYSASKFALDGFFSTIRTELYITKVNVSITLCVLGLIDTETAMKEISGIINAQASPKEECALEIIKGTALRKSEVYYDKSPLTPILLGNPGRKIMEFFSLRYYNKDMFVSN

CC(C)CCC[C@@H](C)[C@H]1CC[C@H]2[C@@H]3[C@@H](O)C=C4C[C@@H](O)CC[C@]4(C)[C@H]3CC[C@]12C [7βOHC, 7β-hydroxycholesterol]
Ki [1]: 0.91 ± 0.05 µM

CC(C)CCC[C@@H](C)[C@H]1CC[C@H]2[C@@H]3C(=O)C=C4C[C@@H](O)CC[C@]4(C)[C@H]3CC[C@]12C [7KC, 7-ketocholesterol]
Ki [2]: 7.33 ± 1.76 µM
